Data on two compounds can be found in US20080045482A1, “COMPOSITIONS AND METHODS FOR THE TREATMENT OF VIRAL INFECTIONS” (priority 2006, published 2008).

The test system of series [1] is Punta Torro Virus (strain Adames). The conditions noted are these: in words.
For series [2], the system named is Pichinde Virus (strain 4763). The following applies: Pichinde Virus strain 4763, in words.
Series [3] concerns A/Equine1/Prague/1/56 (H3N8). The class given is cell-based, equine influenza A virus.
Series [4] deals with Adenovirus type-1 (AdV-1, strain 65089). The conditions noted are these: AdV-1, strain 65089, in words.
A further series relates to HIV-2. The conditions noted are these: HIV-2, in words.
The subject of another series is HSV-2. The conditions noted are these: HSV-2, in words.
Series [5] has as its system A/NorthDakota/2463/03 (H3N2). The class given is cell-based, human influenza A virus.
For series [6], the system named is Herpes Simplex Virus-1 (HSV-1). The conditions noted are these: HSV-1, in words.
In series [7] the test system is A/California/2935/03 (H1N1). The class given is cell-based, human influenza A virus.
Series [8] deals with Human Immunodeficiency Virus-1 (HIV-1). The following applies: HIV-1, in words.
The test system of series [9] is Yellow Fever Virus (17D strain).
The subject of series [10] is A/Duck/Penn/10218/84 (H5N2). The format is cell-based, avian influenza A virus.
For series [11], the system named is Vaccinia Virus (strain WR). The following applies: in words.
The subject of series [12] is Venezuelan Equine Encephalitis Virus (VEE, Trinidad strain).
The test system of series [13] is West Nile Virus (WNV, strain New York). The following applies: in words.
A short description of the next series: pH in water. The class given is physicochemical.
The next series deals with B/1060/03. The class given is cell-based, human influenza B virus.
The subject of series [14] is viral strains from avian, human and equine influenza. The class given is cell-based, influenza virus. The following applies: read-out: IC90 concentrations.
The nature of a further series: Aqueous solubility. The conditions noted are these: 37° C. in distilled water.

Values joined by “and” are separate entries in the source; they are usually repeats but may differ in a detail not shown here. Identical values can stand only once.

Take `O=C(O)P(O)(O)=S` [TPFA, thiophosphonoformic acid]: the inhibitory activity result was “does not have inhibitory activity” in series [1]; “does not have inhibitory activity” in series [2]; “has inhibitory activity” in series [3]; “does not have inhibitory activity” in [4]; “has inhibitory activity” in the series with HIV-2; “has inhibitory activity” with HSV-2. The inhibitory activity entry is “has inhibitory activity” in [5]; “has inhibitory activity” in series [6]; “has inhibitory activity” in series [7]; “has inhibitory activity” in series [8]; “does not have inhibitory activity” in series [9]; “has inhibitory activity” in [10]. For the same compound, the inhibitory activity result in series [11], in series [12] and in series [13] was “does not have inhibitory activity” throughout. For the same compound, the metabolism entry in “Metabolism in the body” was “metabolized to phosphonoformic acid and thiophosphonic acid”.

Consider `O=C(O)P(O)(O)=S` [Thiovir], for which the pH in water entry in “pH in water” is given as “approximately 9”. For the same compound, the concentration for half-maximal inhibition (IC50) in [3] was determined as 55 µM; with B/1060/03 it was 92 µM; in series [5] it was 29 µM; in [7] it was 38 µM; in series [10], 32 µM. The IC90 in [14] was < 250 µM and ~200 µM. In “Aqueous solubility”, this compound had an aqueous solubility of 40.8 g/100 mL.

As a reminder, the IC50 is the concentration needed to halve the response being measured.
